# Test results published in patent US11266609B2, “Bacitracin and/or daptomycin combined with cannabidiol for treatment of bacterial infections” (priority 2017, dated 2022).
# Positions of bridges follow the written chain, without caps; N, C: chain ends. Non-standard residues stand in square brackets, D forms with d. Residues, ends and D or L forms follow the SMILES beside them. *: point of attachment. Ileψ(thiazoline)Cys = CC[C@H](C)[C@H](N)C1=N[C@H](C(=O)*)CS1; dOrn = NCCC[C@@H](N)C(=O)O
# How the values were obtained:
# [1] = target: T1, bacterial undecaprenyl pyrophosphate (UPP) synthase (Staphylococcus aureus, UniProt P60477); details: The Journal of Antibiotics 69, 798-805 (2016); cited from earlier work
# T1 sequence (P60477 1-256): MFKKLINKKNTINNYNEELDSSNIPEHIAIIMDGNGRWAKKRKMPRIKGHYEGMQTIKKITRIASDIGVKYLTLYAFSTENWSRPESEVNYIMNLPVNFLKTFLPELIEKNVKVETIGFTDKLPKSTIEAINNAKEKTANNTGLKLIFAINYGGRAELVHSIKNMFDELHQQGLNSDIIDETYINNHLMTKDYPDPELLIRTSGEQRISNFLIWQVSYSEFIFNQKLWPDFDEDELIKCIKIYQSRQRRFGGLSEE
# [2] = system: Gram-positive bacteria including methicillin-resistant Staphylococcus aureus (MRSA); details: particularly against Gram-positive bacteria including MRSA; cited from earlier work
# [3] = system: MRSA USA300 FPR3757; assay: microbe, parasite or virus in culture; type: cell-based, Staphylococcus aureus; details: for FIC Index: combination of cannabidiol with the respective antibiotic, synergy <= 0.5, no interaction 0.5-4.0, antagonism > 4
# Description: (§1) The resistant bacterium MRSA USA300 FPR3757 (USA300) was the main used bacterium throughout this study. MRSA was grown in Brain Heart Infusion (BHI) or Müeller Hinton (MH) media on plate or in liquid cultures with agitation at 37° C.
# (§2) An ON culture was made by inoculating a bacterial colony in either 5 mL of MH or BHI and incubating at 37° C. with agitation. The antibiotic of interest was added to a row of a sterile 96-well plate (VWR) and a serial dilution was made down the rows containing 50 μL of MH or BHI media in each well, resulting in 2-fold dilution for each row. The ON culture was diluted to OD625 at approximately 1.0 followed by a 1:100 dilution to approximately OD625=0.01 of which 50 μL was added to each well to a final volume of 100 μL. The 96-well plate was incubated at 37° C. with shaking at 225 rpm for approximately 18-24 hours. Presence and absence of growth were determined by visual appearance.
# B) The other screen was based on fractional inhibitory concentration (FIC) index.
# [4] = system: MRSA USA300; assay: Micro dilution growth experiments using oCelloScope, CBD combined with antibiotics (FIG. 1); type: cell-based, Staphylococcus aureus; details: combination with CBD 1-2 μg/mL; bacitracin 16, daptomycin 4, tetracycline 16, fosfomycin 16, dicloxacillin 0.0625, chlorhexidine 0.25, vancomycin 0.5 μg/mL (FIG. 1)
# Description: BCA: Background corrected absorption. ? Growth control, ? CBD, -▴- Antibiotic, ? Combination.
# as §1
# An ON culture was made by inoculating a bacterial colony in either 5 mL of MH or BHI at incubated at 37° C. with agitation. 25 μL of specific concentrations of the antibiotic and cannabinoid to be tested was added to the desired wells of a sterile 96-well plate (Thermo Scientific). 25 μL of MH or BHI media was added to the wells only containing one of the two compounds tested. The bacterial ON culture was diluted to a final OD600 nm of 0.005 and 50 μL was dispensed into each well to a final volume of 100 μL. To decrease evaporation, 2 mL of pre-heated water was added to the corners of the 96-well plate containing cavities. The plate was placed in the oCelloScope inside an incubator at 37° C. Illumination level and focus was adjusted for each well and the growth was measured for approximately 25 hours. Measurements were performed every half an hour for the first half of the time and every hour for the last half using the UniExplorer software. Data retrieved was given in Background corrected absorption (BCA), formerly known as pixel histogram summation (PHS), an algorithm enabling determination of bacterial growth kinetics resulting from images taken with the oCelloScope camera.
# A) A screen was performed using the Philips oCelloScope enabling measurements of bacterial growth in presence or absence of either cannabidiol alone or in combination with an antibiotic or antimicrobial, through a 3D scanning system in 96-well plates.
# [5] = system: E. faecalis (13-327129); assay: microbe, parasite or virus in culture; type: cell-based, Enterococcus faecalis
# Description: (§3) Additional bacteria Enterococcus faecalis (13-327129), Enterococcus faecalis (16-7418), Methicillin-resistant Staphylococcus epidermidis (933010 3F-16 b4), Listeria monocytogenes EGD, Pseudomonas aeruginosa (PA01), Salmonella typhimurium (14028), Klepsiella pneumoniae (CAS55), Vibrio cholerae (A1522), and Escherichia coli (UTI89) were either grown in BHI or Lysogeny broth (LB) media.
# as §2, with “appearance. FIC index was calculated as follows (Alam M T et al. Antibacterial activity of different organic extracts of Achyranthes aspera and Cassia alata. J Sci Res. 2009).” for “appearance.”
# (§4) To study the bacterial spectrum of the combination, CBD and bacitracin growth measurements of other Gram-positive bacteria tests on Enterococcus faecalis, an MRSE strain and a strain of Listeria monocytogenes were performed as described in Example 1.
# (§5) The MIC for bacitracin and CBD and the respective FIC values are visualized in table 2 for the Gram-positive bacteria and are calculated based on two biological replicates.
# [6] = system: E. faecalis (16-7418); assay: microbe, parasite or virus in culture; type: cell-based, Enterococcus faecalis; details: 16-7418
# Description: as §3
# as §2, with “appearance. FIC index was calculated as follows (Alam M T et al. Antibacterial activity of different organic extracts of Achyranthes aspera and Cassia alata. J Sci Res. 2009).” for “appearance.”
# as §4, §5
# [7] = system: MRSE (933010 3F-16 b4); assay: microbe, parasite or virus in culture; type: cell-based, Methicillin-resistant Staphylococcus epidermidis; details: MRSE (933010 3F-16 b4)
# Description: as §3
# as §2, with “appearance. FIC index was calculated as follows (Alam M T et al. Antibacterial activity of different organic extracts of Achyranthes aspera and Cassia alata. J Sci Res. 2009).” for “appearance.”
# as §4, §5
# [8] = system: L. monocytogenes EGD; assay: microbe, parasite or virus in culture; type: cell-based, Listeria monocytogenes
# Description: as §3
# as §2, with “appearance. FIC index was calculated as follows (Alam M T et al. Antibacterial activity of different organic extracts of Achyranthes aspera and Cassia alata. J Sci Res. 2009).” for “appearance.”
# as §4, §5
# [9] = system: Vibrio cholerae (A1522); assay: microbe, parasite or virus in culture; type: cell-based; details: Vibrio cholerae (A1522); above tested concentrations
# Description: as §3
# as §2, with “The 96-well plate was incubated at 37° C. with shaking at 225 rpm for approximately 18-24 hours.” left out, “appearance. FIC index was calculated as follows (Alam M T et al. Antibacterial activity of different organic extracts of Achyranthes aspera and Cassia alata. J Sci Res. 2009).” for “appearance.”
# To further assess the spectrum of use for the combination of CBD and bacitracin, growth of Gram-negative bacteria upon treatment was measured as well as described in Example 1. […]
Molecule,IC50 [1],antimicrobial activity [2],MIC ([3]; Staphylococcus aureus),FIC Index ([3]; WT USA300),synergistic potential in growth curves [4],also measured
COc1cc(O)c2c(O)c3c(c4c2c1C1(C4)C(C)=CCCC1(C)C)C(O)C1(O)CC(=O)C(C(C)=O)=C(O)C1(O)C3=O (stereo not drawn) [Spirohexaline],9 µM,showed antimicrobial activity,,,,
CO/N=C(\C(=O)N[C@@H]1C(=O)N2C(C(=O)O)=C(CSc3nc(=O)c(=O)[nH]n3C)CS[C@H]12)c1csc(N)n1 [Ceftriaxone],,,32 µg/mL,1.5,,
CN[C@H](CC(C)C)C(=O)N[C@H]1C(=O)N[C@@H](CC(N)=O)C(=O)N[C@H]2C(=O)N[C@H]3C(=O)N[C@H](C(=O)N[C@H](C(=O)O)c4cc(O)cc(O)c4-c4cc3ccc4O)[C@H](O)c3ccc(c(Cl)c3)Oc3cc2cc(c3O[C@@H]2O[C@H](CO)[C@@H](O)[C@H](O)[C@H]2O[C@H]2C[C@](C)(N)[C@H](O)[C@H](C)O2)Oc2ccc(cc2Cl)[C@H]1O [Vancomycin],,,2 µg/mL,2,no synergistic potential,
CC[C@H](C)[C@H](N)C1=N[C@H](C(=O)N[C@@H](CC(C)C)C(=O)N[C@H](CCC(=O)O)C(=O)N[C@H](C(=O)N[C@H]2CCCCNC(=O)[C@H](CC(N)=O)NC(=O)[C@@H](CC(=O)O)NC(=O)[C@H](Cc3cnc[nH]3)NC(=O)[C@@H](Cc3ccccc3)NC(=O)[C@H]([C@@H](C)CC)NC(=O)[C@@H](CCCN)NC2=O)[C@@H](C)CC)CS1 [Bacitracin] ({Ileψ(thiazoline)Cys}-L[dE]IK[dOrn]I[dF]H[dD]N; lactam 4-C),,,,0.30,synergistic potential,"MIC ([3]; MRSA USA300 FPR3757, Table 2, two biological replicates): 64 µg/mL; Fold decreased bacitracin ([3]; MRSA USA300 FPR3757, bacitracin MIC combined with CBD compared to bacitracin alone): 16-32 fold; MIC ([3]; WT USA300): 64 µg/mL; MIC ([5]; 13-327129): 128 µg/mL; Fold decreased bacitracin ([5]; E. faecalis (13-327129), bacitracin MIC combined with CBD compared to bacitracin alone): 16 fold; MIC [6]: 128 µg/mL; MIC [7]: 32 µg/mL; Fold decreased bacitracin ([7]; bacitracin MIC combined with CBD compared to bacitracin alone): 64 fold; MIC ([8]; EGD): 512 µg/mL; Fold decreased bacitracin ([8]; L. monocytogenes EGD, bacitracin MIC combined with CBD compared to bacitracin alone): 8-16 fold; MIC [9]: >1024 µg/mL"
CCCCCCCCCC(=O)N[C@@H](Cc1c[nH]c2ccccc12)C(=O)N[C@H](CC(N)=O)C(=O)N[C@@H](CC(=O)O)C(=O)N[C@@H]1C(=O)NCC(=O)N[C@@H](CCCN)C(=O)N[C@@H](CC(=O)O)C(=O)N[C@H](C)C(=O)N[C@@H](CC(=O)O)C(=O)NCC(=O)N[C@H](CO)C(=O)N[C@@H]([C@H](C)CC(=O)O)C(=O)N[C@@H](CC(=O)c2ccccc2N)C(=O)O[C@@H]1C [Daptomycin],,,,,to some degree,MIC ([3]; USA300): 16 µg/mL
Viridicatumtoxin,4 µM,showed antimicrobial activity,,,,
